Experimental data published in patent publication US20260083865A1, “PROSTATE SPECIFIC MEMBRANE ANTIGEN (PSMA) LIGANDS AND USE THEREOF” (priority 2022, published 2026).
Like-named read-outs stand apart in the source and are kept apart here. Blank lines part the entries; values can stand above or below the compound they belong to. Numbered stars: 1 amine (or outer) side, 2 acyl side, 3 side chain; on linkers, the order of the positions; unused ones are H or OH. Bridge positions count the residues as written; N and C are the ends. Square brackets hold non-standard residues; d marks the D form. Peptide text beside a SMILES is read from it. * marks the point of attachment. ξ: configuration not given here. X19 = NC(=O)[C@H](CCCCNC(=O)CCCC[C@@H]1SC[C@@H]2NC(=O)N[C@@H]21)NC(=O)CCC(=O)NCCCOCCOCCOCCCNC(=O)CCC(=O)NCCCOCCOCCOCCCNC(=O)CCC(=O)NCCCOCCOCCOCCCN*; TtdsdLys(DOTA)NH2 = NC(=O)[C@@H](CCCCNC(=O)CN1CCN(CC(=O)O)CCN(CC(=O)O)CCN(CC(=O)O)CC1)NC(=O)CCC(=O)NCCCOCCOCCOCCCN*; Acetyl(1-DOTA-4-piperidyl) = O=C(O)CN1CCN(CC(=O)O)CCN(CC(=O)N2CCC(CC(=O)*)CC2)CCN(CC(=O)O)CC1; DOTA = O=C(O)CN1CCN(CC(=O)O)CCN(CC(=O)*)CCN(CC(=O)O)CC1; X20 = CN(CCC[C@H](N[*:1])C(=O)[*:2])C(=N)N; Phe(4-Cl) = N[C@@H](Cc1ccc(Cl)cc1)C(=O)O; X1 = O=C(CC1CCN([*:1])CC1)[*:2]; Cit = NC(=O)NCCC[C@H](N)C(=O)O; Lys(Me) = CNCCCC[C@H](N)C(=O)O; Tle = CC(C)(C)[C@H](N)C(=O)O; Hexanoyl = CCCCCC(=O)*; Aib = CC(C)(N)C(=O)O; ξM = CSCCC(N)C(=O)O

Legend:
[1] = target: T1, Fc-fusion protein of human PSMA (hPSMA-Fc) (Homo sapiens, UniProt Q04609); test: Surface plasmon resonance assay (Biacore T200, single cycle kinetic); assay type: binding; settings: PSMA SPR assay, read-out: pKD CAT (converted)
T1 construct: purchased Acro Biosystems PSA-H5264
Procedure: Surface plasmon resonance (SPR) studies were performed using a Biacore™ T200 SPR system. Briefly, polarized light is directed towards a gold-labeled sensor surface, and minimum intensity reflected light is detected. The angle of reflected light changes as molecules bind and dissociate.
Fc-fusion protein of human PSMA (hPSMA-Fc, Acro Biosystems, Cat #PSA-H5264) was captured on a Fc-capture chip (Biacore™ CM5 sensor chip coated with ˜300 RU of an Fc-binding peptide). hPSMA-Fc was diluted in Running Buffer (HBST, 0.1% DMSO) to a final concentration of 100 nM and then flushed over the Fc-capture chip to immobilized ˜1000 RUs.
Stock solutions of test compounds were prepared by dissolving each compound in DMSO. DMSO stock solution were diluted 1:1000 in Running Buffer without DMSO. Further sequential dilutions were made with Running Buffer containing 0.1% DMSO. SPR binding analyses were performed in Single Cycle Kinetic (SCK) mode at 25° C. Flow cell coated with the Fc-binding peptide only served as reference flowcell. After each SCK run, hPSMA-Fc was removed with 10 mM glycine buffer, pH 1.5.
In between every three SCK measurements, a blank run with Running Buffer instead of test compound was included to correct for baseline drifts (double blanking method).
Table 5 describes the protocol steps for Fc-fusion target capturing and assessment of the binding kinetics.
For each test compound, SPR raw data in the form of resonance units (RU) were plotted as sensorgrams using the Biacore™ T200 control software. The signal from the blank sensorgram was subtracted from that of the test compound sensorgram (blank corrected). The blank corrected sensorgram was corrected for baseline drift by subtracting the sensorgram of a SCK run without the test compound (running buffer only). The dissociation constant (KD) was calculated from Blank-normalized SPR data using the 1:1 Langmuir binding model from the Biacore™ Insight Evaluation software. The pKD value (negative decadic logarithm of dissociation constant) was calculated using Microsoft Excel.

[2] = target: T2, PSMA-expressing C4-2 cells (Homo sapiens, UniProt Q04609); test: FACS binding assay (competition with 50 nM PSM-0183); settings: FACS binding, read-out: pIC50 [C4-2] CAT (converted)
T2 construct: PSMA-expressing C4-2 cells (ATCC, Cat. No. CRL-3314) were cultured in RPMI-1640; host or cells: C4-2 cells
Procedure: In order to determine binding of compounds according to the present invention to PSMA-expressing cells, a FACS binding assay was established.
PSMA-expressing C4-2 cells (ATCC, Cat. No. CRL-3314) were cultured in RPMI-1640 (Pan Biotech, Cat. No. P04-18050) including 10% fetal calf serum (Biochrom) and 100 U/ml penicillin and 100 μg/mL streptomycin (Sigma, Cat. No. P0781). Cells were detached with Accutase (Biolegend, Cat. No. BLD-423201) and washed in FACS buffer (PBS (Sigma, Cat. No. D8537) including 1% fetal calf serum). Cells were diluted in FACS buffer to a final concentration of 500,000 cells per mL. 200 μL of the cell suspension were transferred to a u-shaped non-binding 96-well plate (Greiner Bio-One, Cat. No. 650901) and cells were washed in ice-cold FACS buffer.
For IC50 determination, C4-2 cells were incubated with 50 nM PSM-0183 (Ac-Thr-Aib-Phe[Cys-Lys-Arg-Aib-Asn-Cys]-Tle-Thr-Asp-Ttds-Ttds-AF488N3K-NH2) in the presence of increasing concentrations of test compounds at 4° C. for 1 hour. After two wash steps with ice-cold FACS buffer, cells were analyzed in an Attune NxT flow cytometer. Median fluorescence intensities (MFI) of the FITC/AF488-channel were calculated by Attune NxT software. MFI values were plotted against peptide concentration and four parameter logistic (4PL) curve fitting and IC50/pIC50 calculations were performed using ActivityBase software (IDBS).

T2 sequence (Q04609 whole entry): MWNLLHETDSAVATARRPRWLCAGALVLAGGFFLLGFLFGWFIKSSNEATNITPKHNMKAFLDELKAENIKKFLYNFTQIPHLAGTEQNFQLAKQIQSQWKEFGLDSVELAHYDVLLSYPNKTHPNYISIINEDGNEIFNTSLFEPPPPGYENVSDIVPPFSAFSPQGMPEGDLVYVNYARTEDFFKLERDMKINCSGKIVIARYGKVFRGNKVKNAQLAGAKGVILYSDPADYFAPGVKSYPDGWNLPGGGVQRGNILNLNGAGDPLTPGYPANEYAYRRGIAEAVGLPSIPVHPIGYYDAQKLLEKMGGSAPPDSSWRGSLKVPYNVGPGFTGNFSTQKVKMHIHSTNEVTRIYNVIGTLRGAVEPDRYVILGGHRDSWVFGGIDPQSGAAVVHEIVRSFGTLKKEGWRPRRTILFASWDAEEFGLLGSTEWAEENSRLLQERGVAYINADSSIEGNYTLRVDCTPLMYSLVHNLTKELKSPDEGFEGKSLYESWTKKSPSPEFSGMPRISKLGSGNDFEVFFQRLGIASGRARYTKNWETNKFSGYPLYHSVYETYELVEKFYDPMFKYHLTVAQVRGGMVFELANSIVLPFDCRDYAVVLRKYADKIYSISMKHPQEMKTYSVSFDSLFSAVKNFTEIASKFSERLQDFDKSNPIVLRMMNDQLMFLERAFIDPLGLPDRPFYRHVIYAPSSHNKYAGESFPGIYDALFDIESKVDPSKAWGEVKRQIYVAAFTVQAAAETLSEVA
T1 sequence (Q04609 44-750 limits assumed): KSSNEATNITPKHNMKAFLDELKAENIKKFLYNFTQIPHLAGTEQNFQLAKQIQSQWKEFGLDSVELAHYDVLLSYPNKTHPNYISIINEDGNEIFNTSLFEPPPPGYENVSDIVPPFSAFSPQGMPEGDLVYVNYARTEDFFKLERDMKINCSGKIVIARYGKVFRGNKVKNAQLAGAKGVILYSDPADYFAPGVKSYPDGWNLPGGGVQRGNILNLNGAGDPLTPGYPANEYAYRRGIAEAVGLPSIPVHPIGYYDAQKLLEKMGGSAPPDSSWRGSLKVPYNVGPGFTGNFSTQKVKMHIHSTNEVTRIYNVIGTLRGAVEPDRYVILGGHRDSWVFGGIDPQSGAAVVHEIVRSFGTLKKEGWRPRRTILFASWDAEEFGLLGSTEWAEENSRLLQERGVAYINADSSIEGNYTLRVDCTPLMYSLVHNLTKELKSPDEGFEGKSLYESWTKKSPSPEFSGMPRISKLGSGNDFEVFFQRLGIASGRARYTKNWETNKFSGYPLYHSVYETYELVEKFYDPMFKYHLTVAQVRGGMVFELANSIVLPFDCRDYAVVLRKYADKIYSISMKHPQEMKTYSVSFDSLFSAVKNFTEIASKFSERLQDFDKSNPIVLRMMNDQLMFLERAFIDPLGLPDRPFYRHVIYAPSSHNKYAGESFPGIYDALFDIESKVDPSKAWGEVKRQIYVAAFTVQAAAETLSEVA

Kd ([1]; hPSMA-Fc, 25° C., pKD category): 12.6 to 126 nM | IC50 ([2]; PSMA-expressing C4-2 cells, pIC50 category): < 200 nM
SMILES: CC(=O)N[C@H](C(=O)NC(C)(C)C(=O)N[C@@H](Cc1ccc(Cl)cc1)C(=O)N[C@H]1CSSC[C@@H](C(=O)N[C@H](C(=O)N[C@H](C(=O)N[C@H](CCCCNC(=O)CC2CCN(C(=O)CN3CCN(CC(=O)O)CCN(CC(=O)O)CCN(CC(=O)O)CC3)CC2)C(N)=O)[C@@H](C)O)C(C)(C)C)NC(=O)[C@H](CC(N)=O)NC(=O)C(C)(C)NC(=O)[C@H](CCCNC(N)=O)NC(=O)[C@H](CCCCN)NC1=O)[C@@H](C)O [PSM-0322, Ac-Thr-Aib-Pcf-[Cys-Lys-Cit-Aib-Asn-Cys]-Tle-Thr-lys (DOTA-Cmp)-NH2] (Ac-T[Aib][Phe(4-Cl)]CK[Cit][Aib]NC[Tle]T[dK](Acetyl(1-DOTA-4-piperidyl))-NH2; disulfide 4-9)

Kd ([1]; category): < 12.6 nM | IC50 ([2]; C4-2 cells, category): < 200 nM
SMILES: CCCCCC(=O)N[C@H](C(=O)NC(C)(C)C(=O)N[C@@H](Cc1ccccc1)C(=O)N[C@H]1CSSC[C@@H](C(=O)N[C@H](C(=O)N[C@H](C(=O)NCCCOCCOCCOCCCNC(=O)CCC(=O)N[C@H](CCCCNC(=O)CN2CCN(CC(=O)O)CCN(CC(=O)O)CCN(CC(=O)O)CC2)C(N)=O)[C@@H](C)O)C(C)(C)C)NC(=O)[C@H](CC(N)=O)NC(=O)C(C)(C)NC(=O)[C@H](CCCNC(=N)N)NC(=O)[C@H](CCCCN)NC1=O)[C@@H](C)O [PSM-0576, Hex-Thr-Aib-Phe-[Cys-Lys-Arg-Aib-Asn-Cys]-Tle-Thr-Ttds-lys(DOTA)-NH2] (Hexanoyl-T[Aib]FCKR[Aib]NC[Tle]T-{TtdsdLys(DOTA)NH2}; disulfide 4-9)

IC50 ([2]; C4-2 cells, competition with 50 nM PSM-0183, category): 200 to 1260 nM
SMILES: CSCCC(N)C(=O)N[C@H](C(=O)N[C@@H](C)C(=O)N[C@@H](Cc1ccccc1)C(=O)N[C@H]1CSSC[C@@H](C(=O)N[C@@H](CC(C)C)C(=O)N[C@H](C(=O)N[C@@H](CC(=O)O)C(=O)NCC(=O)N[C@@H](CO)C(=O)NCCCOCCOCCOCCCNC(=O)CCC(=O)NCCCOCCOCCOCCCNC(=O)CCC(=O)NCCCOCCOCCOCCCNC(=O)CCC(=O)N[C@@H](CCCCNC(=O)CCCC[C@@H]2SC[C@@H]3NC(=O)N[C@@H]32)C(N)=O)[C@@H](C)O)NC(=O)[C@H](CC(N)=O)NC(=O)[C@H](C)NC(=O)[C@H](CCCNC(=N)N)NC(=O)[C@H](CCCCN)NC1=O)[C@@H](C)O (stereo partly drawn) [PSM-0226, H-Met-Thr-Ala-Phe-[Cys-Lys-Arg-Ala-Asn-Cys]-Leu-Thr-Asp-Gly-Ser-Ttds-Ttds-Ttds-Lys(Bio)-NH2] (H-[ξM]TAFCKRANCLTDGS-X19; disulfide 5-10)

IC50 ([2]; C4-2 cells, category): < 200 nM
SMILES: CNCCCC[C@@H]1NC(=O)[C@@H](NC(=O)[C@H](Cc2ccc(Cl)cc2)NC(=O)C(C)(C)NC(=O)[C@@H](NC(=O)CC2CCN(C(=O)CN3CCN(CC(=O)O)CCN(CC(=O)O)CCN(CC(=O)O)CC3)CC2)[C@@H](C)O)CSSC[C@@H](C(=O)N[C@H](C(=O)N[C@H](C(N)=O)[C@@H](C)O)C(C)(C)C)NC(=O)[C@H](CC(N)=O)NC(=O)C(C)(C)NC(=O)[C@H](CCCN(C)C(=N)N)NC1=O [PSM-0592, DOTA-Cmp-Thr-Aib-Pcf-[Cys-Lys(Me)-RMe1-Aib-Asn-Cys]-Tle-Thr-NH2] ({DOTA}-[X1]T[Aib][Phe(4-Cl)]C[Lys(Me)][X20][Aib]NC[Tle]T-NH2; disulfide 5-10)
